# According to patent US9358267B2, “High purity lipopeptides” (Cubist Pharmaceuticals LLC, priority 2000, dated 2016):
# Columns and labels:
# [1] = system: gram-positive organisms (susceptible and resistant strains); experiment: in vitro antibacterial activity (MIC); assay type: cell-based
# Experimental: In addition, the minimum inhibitory concentration (MIC) value for daptomycin against susceptible strains is typically 4-fold lower than that of vancomycin. […] Thus, in a preferred embodiment, purified daptomycin, lipopeptide antibiotic, or pharmaceutical compositions thereof are administered according to the methods of this invention to a patient in need of rapidly acting antibiotic therapy.
# [2] = size of daptomycin micelles by light scatter (Zetasizer); assay type: physicochemical; details: for micelle size: 1 mg/mL, pH approximately 4.0 in water, light scatter
# Experimental: The daptomycin micelles have an average size of 5.4 nm (54 A).
# Daptomycin micelles were produced using daptomycin at a concentration of 1.0 mg/mL in water at pH 4.0 at 25° C. The size of a daptomycin micelle was measured using a Zetasizer™ (Malvern Instruments, Model 3000 HS). The count rate of 36.3, the cell type was a capillary cell, the detection angle (deg) was 90°, and the wavelength (nm) was 633.
# [3] = critical micellar concentration (cmc) of daptomycin; assay type: physicochemical
# Description: Micelle formation causes changes in several bulk physical properties of a solution including changes in osmotic pressure, turbidity, electrical conductance, surface tension, co-ion and counterion activities (in the case of ionic, amphipathic molecules), refractive index, UV and NMR spectra, partial molar volume, viscosity, diffusion coefficient and dye solubilization. The cmc can be determined by measuring one or more of these micelle-dependent physical properties as a function of concentration of the amphipathic molecule. The size and shape of micelles can be determined by dynamic laser light scattering, ultracentrifugation, viscosity and/or low-angle X-ray scattering experiments. Micelles can also exist in liquid crystal phases.
# In another embodiment of the invention, the pH of a solution comprising a lipopeptide is manipulated to influence the cmc of the lipopeptide. In a preferred embodiment, the lipopeptide is daptomycin or a daptomycin-related molecule, such as those described supra. In an even more preferred embodiment, the lipopeptide is daptomycin. In one embodiment, the pH is manipulated so that the concentration of a lipopeptide is higher than the cmc at one pH and is lower than the cmc at another pH. For instance, for daptomycin, the cmc at pH 4.0 in water at a temperature of 20-25° C. was much lower than at pH 6.0 or 7.5. […]
structure (smiles),measurement,setting,value
CCCCCCCCCC(=O)N[C@@H](Cc1c[nH]c2ccccc12)C(=O)N[C@H](CC(N)=O)C(=O)N[C@@H](CC(=O)O)C(=O)N[C@@H]1C(=O)NCC(=O)N[C@@H](CCCN)C(=O)N[C@@H](CC(=O)O)C(=O)N[C@H](C)C(=O)N[C@@H](CC(=O)O)C(=O)NCC(=O)N[C@H](CO)C(=O)N[C@@H]([C@H](C)CC(=O)O)C(=O)N[C@@H](CC(=O)c2ccccc2N)C(=O)O[C@@H]1C [daptomycin],antibacterial activity against classically resistant strains relative to classically susceptible strains,[1]; in vitro experiments,comparable
same,"MIC, fold lower than that of vancomycin",[1]; susceptible strains,~4 fold
same,diameter of the micelle,"[2]; 1.0 mg/mL in water, pH 4.0, 25° C., Zetasizer",54 A
same,micelle size,[2],5.4 nm
same,micelle size,[2]; listed as Daptomycin,approximately 5.4 nm
same,aggregation state (monomeric or micellar),"[3]; 150 mg/mL daptomycin, pH 6.5, 150 mM to 300 mM NaCl, 4° C.",monomeric
same,critical micellar concentration (cmc),"[3]; pH 4.0 in water, 20-25° C.",approximately 400 μg/mL
